According to patent US11725036B2, “Modified lipidated relaxin B chain peptides and their therapeutic use” (Sanofi, priority 2018, dated 2023):
Starred links: 1 amine or outer side, 2 acyl side, 3 side chain; linkers in the order of their positions; H or OH if unused. Non-standard residues stand in square brackets, D forms with d. Residues, ends and D or L forms follow the SMILES beside them. Groups on a side chain read outwards from the residue. *: point of attachment. X1 = CCCCCCCCCCCCCCCC(=O)N[C@@H](CCC(=O)N[C@@H](CCC(=O)N[C@@H](CCC(=O)NCCCOCCOCCOCCCNC(=O)CCC(=O)NCCCOCCOCCOCCCNC(=O)CCC(=O)NCCCOCCOCCOCCCN*)C(=O)O)C(=O)O)C(=O)O; X2 = CCCCCCCCCCCCCCCC(=O)N[C@@H](CCC(=O)N[C@@H](CCC(=O)N[C@@H](CCC(=O)NCCCOCCOCCOCCCNC(=O)CCC(=O)NCCCOCCOCCOCCCN*)C(=O)O)C(=O)O)C(=O)O; Suc = O=C(CCC(=O)[*:2])[*:1]; αMeK = C[C@](N)(CCCCN)C(=O)O; Aib = CC(C)(N)C(=O)O

What was measured:
in vivo = experiment: in vivo; design: species or system Sprague Dawley rats; conditions: Sprague Dawley, rat; for bioavailability / Cmax / Tmax: sc; for Cmax / Tmax: 3 mg/kg
Procedure, shortened: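 Sprague Dawley rats given peptide in PBS at 1 mg/kg i.v. or 3 mg/kg s.c., doses corrected for purity, salts and solvent; plasma sampled up to 72 h and quantified by LC/MS after protein precipitation. Non-compartmental PK with BLQ set to zero; F % from dose-corrected s.c./i.v. AUC.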

RXFP1 = molecular target: T1, RXFP1 (Homo sapiens, UniProt Q9HBX9); experiment: OVCAR5 cAMP assay (HTRF); assay type: cell-based; conditions: for EC50: OVCAR 5 cells expressing endogenous RXFP1, cAMP readout; for Emax: OVCAR 5 cells, maximal cAMP relative to H2-relaxin
T1 construct: OVCAR5 cells expressing endogenous RXFP1; endogenous in cells; host or cells: OVCAR5
T1 sequence (Q9HBX9 1-757): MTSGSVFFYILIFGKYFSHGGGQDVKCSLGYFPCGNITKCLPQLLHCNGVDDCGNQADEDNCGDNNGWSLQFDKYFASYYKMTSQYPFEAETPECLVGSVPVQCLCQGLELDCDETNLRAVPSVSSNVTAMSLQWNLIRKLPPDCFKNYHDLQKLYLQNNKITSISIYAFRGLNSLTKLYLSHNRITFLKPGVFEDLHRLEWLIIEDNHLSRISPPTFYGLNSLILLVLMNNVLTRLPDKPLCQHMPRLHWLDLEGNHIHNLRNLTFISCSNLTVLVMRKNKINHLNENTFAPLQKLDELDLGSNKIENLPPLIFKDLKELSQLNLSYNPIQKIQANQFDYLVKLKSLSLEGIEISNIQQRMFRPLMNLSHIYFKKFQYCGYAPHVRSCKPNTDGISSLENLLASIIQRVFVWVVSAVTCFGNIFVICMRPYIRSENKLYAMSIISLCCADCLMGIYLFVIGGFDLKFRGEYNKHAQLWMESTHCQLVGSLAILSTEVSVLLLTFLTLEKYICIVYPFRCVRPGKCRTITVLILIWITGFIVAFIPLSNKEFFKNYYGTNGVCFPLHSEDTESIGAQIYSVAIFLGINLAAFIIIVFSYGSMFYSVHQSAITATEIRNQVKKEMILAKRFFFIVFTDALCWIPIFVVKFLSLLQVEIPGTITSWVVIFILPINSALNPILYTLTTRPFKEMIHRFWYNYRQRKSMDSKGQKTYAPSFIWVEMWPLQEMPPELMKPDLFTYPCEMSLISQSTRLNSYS
Procedure, shortened: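 Endogenous RXFP1 in OVCAR5 cells, pretreated 40 min at 37° C with 1 mM IBMX, then exposed to increasing peptide concentrations in serum-free medium for 30 min at 37° C. cAMP read by HTRF; EC50 by variable-slope sigmoidal fit, Emax as % of H2-relaxin maximal cAMP in same run.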

Row | C0 (in vivo; iv, 1 mg/kg) | T½ (h), in-vivo half-life (in vivo; iv, 1 mg/kg) | bioavailability (in vivo) | Cmax (in vivo) | Tmax (in vivo) | EC50 (RXFP1) | Emax (RXFP1) | half-life (in vivo; iv, 1 mg/kg) | Compound
1 | 3200 nM | 7.8 h | 83% | 2300 nM | 8 h | 0.34 nM | 97% | – | CCCCCCCCCCCCCCCC(=O)N[C@@H](CCC(=O)N[C@@H](CCC(=O)N[C@@H](CCC(=O)NCCCOCCOCCOCCCNC(=O)CCC(=O)NCCCOCCOCCOCCCNC(=O)CCC(=O)NCCCOCCOCCOCCCNC(=O)CCC(=O)NCCCC[C@H](NC(=O)CNC(=O)[C@H](CCC(=O)O)NC(=O)C(C)(C)NC(=O)C(C)(C)NC(=O)[C@@H](NC(=O)[C@H](CCCCNC(C)=O)NC(=O)[C@H](C)NC(=O)[C@H](CCCNC(=N)N)NC(=O)[C@@H](NC(=O)[C@H](CCCCN)NC(=O)[C@H](CCC(=O)O)NC(=O)[C@H](CCCNC(=N)N)NC(=O)CNC(=O)[C@H](CCC(=O)O)NC(=O)[C@H](CC(C)C)NC(C)=O)C(C)C)[C@@H](C)CC)C(=O)N[C@@H](CO)C(=O)N[C@H](C(=O)N[C@@H](Cc1ccccc1)C(=O)N[C@@H](CO)C(=O)N[C@@](C)(CCCCN)C(=O)N[C@@H](CCCNC(=N)N)C(=O)N[C@@H](C)C(=O)N[C@@H](CCCCNC(C)=O)C(N)=O)[C@@H](C)O)C(=O)O)C(=O)O)C(=O)O [compound 3] (Ac-LEGREKVRAK(Ac)I[Aib][Aib]EGK([Suc-X1])STFS[αMeK]RAK(Ac)-NH2)
2 | 2750 nM | – | 69% | 1990 nM | 8 h | 1.5 nM | 89% | 8.71 h | CCCCCCCCCCCCCCCC(=O)N[C@@H](CCC(=O)N[C@@H](CCC(=O)N[C@@H](CCC(=O)NCCCOCCOCCOCCCNC(=O)CCC(=O)NCCCOCCOCCOCCCNC(=O)CCC(=O)NCCCC[C@H](NC(=O)CNC(=O)[C@H](CCC(=O)O)NC(=O)C(C)(C)NC(=O)C(C)(C)NC(=O)[C@@H](NC(=O)[C@H](CCCCNC(C)=O)NC(=O)[C@H](C)NC(=O)[C@H](CCCNC(=N)N)NC(=O)[C@@H](NC(=O)[C@H](CCCCN)NC(=O)[C@H](CCC(=O)O)NC(=O)[C@H](CCCNC(=N)N)NC(=O)CNC(=O)[C@H](CCC(=O)O)NC(=O)[C@H](CC(C)C)NC(C)=O)C(C)C)[C@@H](C)CC)C(=O)N[C@@H](CO)C(=O)N[C@H](C(=O)N[C@@H](Cc1c[nH]c2ccccc12)C(=O)N[C@@H](CO)C(=O)NC(C)(C)C(=O)N[C@@H](CCCNC(=N)N)C(=O)N[C@@H](CCCCN)C(=O)N[C@@H](CCCCNC(C)=O)C(N)=O)[C@@H](C)O)C(=O)O)C(=O)O)C(=O)O [compound 4] (Ac-LEGREKVRAK(Ac)I[Aib][Aib]EGK([Suc-X2])STWS[Aib]RKK(Ac)-NH2)
